US20230416199A1, “INHIBITORS OF AMINO ACID TRANSPORT” (ICAHN SCHOOL OF MEDICINE AT MOUNT SINAI, priority 2020, published 2023)

How the values were obtained:
Assay type in all cases: cell-based
EAAT2 = target: T1, EAAT2 (Homo sapiens, UniProt P43004); test: Electrophysiology specificity experiment in transfected HEK293 cells, EAAT2; conditions: apparent Ki, HEK293, internal solution 10 mM glutamate, mean ± SD; read-out: Ki EAAT2
T1 construct: expressed in transfected cells; host or cells: HEK293 (ATCC CRL-11268), transient transfection
Procedure: (§1) Human embryonic kidney 293 (HEK293, ATCC CRL-11268) cells were cultured in DMEM media supplemented with 10% (v v) fetal bovine serum (FBS), 2 mM glutamine, 1% penicillin streptomycin solution, 1 mM sodium pyruvate and non-essential amino acids. Cells were maintained at 37° C. in a fully humidified atmosphere containing 5% CO2. rASCT2, hASCT2, hASCT1, EAAT1, EAAT2, EAAC1, EAAT5 and YFP complementary DNAs were each used to transiently transfect HEK293 using POLYPLUS Jet-prime transfection reagent. Cells were analyzed using electrophysiological techniques 24-40 hours after transfection.
(§2) Stock solutions of inhibitor was prepared in dimethyl sulfoxide (DMSO) up to 100 mM. Dilutions to working concentrations were made using external buffer. […] For rASCT2, hASCT2 and hASCT1, external buffer contained 140 mM NaCl, 2 mM MgCl2, 2 mM CaCl2), and 10 mM HEPES, pH 7.40 while internal pipette solution comprised of 130 mM NaSCN, 2 mM MgCl2, 10 mM EGTA, 10 mM HEPES and 10 mM alanine, pH 7.40. For specificity experiments with EAAT1, EAAT2, EAAC1 and EAAT5, internal solution contained 10 mM glutamate instead of alanine. Compounds were applied to HEK293 cells expressing DNA of interest suspended from a current recording electrode in whole cell configuration through a rapid solution exchange device. Cells are immersed in external buffer bath used to dissolve the inhibitors. The open pipette resistance was between 3 and 6 MΩ. Series resistance was not compensated in these experiments due to relatively small currents. Currents traces were recorded using an Adams and List EPC7 amplifier and digitized using a Molecular Devices Digidata A/D converter.
(§3) Linear and nonlinear curve fitting of the experimental data were analyzed using MicroCal Origin software. Nonlinear dose-response relationships were fitted with a Michaelis-Menten-like equation to obtain apparent Ki values in the absence of substrate (see TABLE 2 for Ki values). The figures show representative current traces and dose-response curves for hACST2 and rASCT2, used to obtain Ki values in TABLE 2 for compound SN 40. At least four experiments were performed with at least three different cells. Error bars in all graphs, e.g., in FIG. 1B and FIG. 1C and tables (Ki values) represent mean±SD.

EAAT1 = target: T2, EAAT1 (Homo sapiens, UniProt P43003); test: Electrophysiology specificity experiment in transfected HEK293 cells, EAAT1; conditions: apparent Ki, HEK293, internal solution 10 mM glutamate, mean ± SD
T2 construct: expressed in transfected cells; host or cells: HEK293 (ATCC CRL-11268), transient transfection
Procedure: as §1, §2, §3

rASCT2 = target: T3, rASCT2 (Rattus norvegicus, UniProt D3ZJ25); test: Electrophysiology (whole-cell current recording) of transfected HEK293 cells, rASCT2; conditions: apparent Ki in the absence of substrate, HEK293, mean ± SD; read-out: Ki rASCT2
T3 construct: expressed in transfected cells; host or cells: HEK293 (ATCC CRL-11268), transient transfection
T3 sequence (D3ZJ25 1-555): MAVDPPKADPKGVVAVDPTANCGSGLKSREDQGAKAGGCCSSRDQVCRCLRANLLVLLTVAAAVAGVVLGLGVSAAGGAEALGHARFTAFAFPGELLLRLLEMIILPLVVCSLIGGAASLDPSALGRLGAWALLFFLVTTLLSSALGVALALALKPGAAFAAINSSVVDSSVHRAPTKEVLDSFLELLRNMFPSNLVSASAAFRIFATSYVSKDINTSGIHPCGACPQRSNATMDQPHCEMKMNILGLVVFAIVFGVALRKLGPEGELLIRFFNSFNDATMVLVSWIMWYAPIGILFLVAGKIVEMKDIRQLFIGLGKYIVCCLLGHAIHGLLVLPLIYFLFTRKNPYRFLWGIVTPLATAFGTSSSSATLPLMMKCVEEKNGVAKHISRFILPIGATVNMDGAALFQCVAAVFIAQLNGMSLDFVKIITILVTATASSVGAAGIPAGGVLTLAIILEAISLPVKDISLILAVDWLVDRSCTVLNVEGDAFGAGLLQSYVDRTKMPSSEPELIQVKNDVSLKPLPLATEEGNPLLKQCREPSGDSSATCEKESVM
Procedure: as §1, §2, §3

hASCT1 = target: T4, hASCT1 (Homo sapiens, UniProt P43007); test: Electrophysiology (whole-cell current recording) of transfected HEK293 cells, hASCT1; conditions: apparent Ki in the absence of substrate, HEK293, mean ± SD; read-out: Ki hASCT1
T4 construct: expressed in transfected cells; host or cells: HEK293 (ATCC CRL-11268), transient transfection
T4 sequence (P43007 1-532): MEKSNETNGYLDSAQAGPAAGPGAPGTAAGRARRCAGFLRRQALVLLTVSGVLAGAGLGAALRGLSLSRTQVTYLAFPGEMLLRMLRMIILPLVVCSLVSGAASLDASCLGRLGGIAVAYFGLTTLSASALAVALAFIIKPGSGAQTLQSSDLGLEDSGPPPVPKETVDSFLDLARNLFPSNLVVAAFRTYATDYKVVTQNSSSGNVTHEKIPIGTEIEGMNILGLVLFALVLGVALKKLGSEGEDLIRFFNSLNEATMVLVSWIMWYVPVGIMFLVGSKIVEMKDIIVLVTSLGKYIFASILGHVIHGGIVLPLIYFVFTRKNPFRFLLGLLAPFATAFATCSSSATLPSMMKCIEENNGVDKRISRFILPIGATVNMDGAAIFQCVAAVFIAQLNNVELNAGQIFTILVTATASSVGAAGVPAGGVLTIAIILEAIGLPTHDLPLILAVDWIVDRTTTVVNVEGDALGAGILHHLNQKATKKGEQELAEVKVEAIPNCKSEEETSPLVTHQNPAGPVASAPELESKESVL
Procedure: as §1, §2, §3

T1 sequence (P43004 whole entry, species assumed): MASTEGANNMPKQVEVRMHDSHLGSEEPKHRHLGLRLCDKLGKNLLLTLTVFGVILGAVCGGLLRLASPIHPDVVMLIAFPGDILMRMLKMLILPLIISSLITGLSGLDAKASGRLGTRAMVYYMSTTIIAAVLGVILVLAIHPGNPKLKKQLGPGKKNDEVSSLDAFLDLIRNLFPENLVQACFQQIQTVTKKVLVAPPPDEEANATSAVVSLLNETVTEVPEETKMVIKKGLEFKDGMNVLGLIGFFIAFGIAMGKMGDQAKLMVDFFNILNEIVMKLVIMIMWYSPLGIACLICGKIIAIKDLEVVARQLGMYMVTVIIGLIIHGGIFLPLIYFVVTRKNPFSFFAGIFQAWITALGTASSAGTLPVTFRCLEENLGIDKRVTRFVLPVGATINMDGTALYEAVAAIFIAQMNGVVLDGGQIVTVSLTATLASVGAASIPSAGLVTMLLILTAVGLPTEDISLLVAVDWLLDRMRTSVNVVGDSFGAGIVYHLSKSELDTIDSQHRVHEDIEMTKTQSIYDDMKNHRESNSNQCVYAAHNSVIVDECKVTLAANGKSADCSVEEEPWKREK
T2 sequence (P43003 whole entry, species assumed): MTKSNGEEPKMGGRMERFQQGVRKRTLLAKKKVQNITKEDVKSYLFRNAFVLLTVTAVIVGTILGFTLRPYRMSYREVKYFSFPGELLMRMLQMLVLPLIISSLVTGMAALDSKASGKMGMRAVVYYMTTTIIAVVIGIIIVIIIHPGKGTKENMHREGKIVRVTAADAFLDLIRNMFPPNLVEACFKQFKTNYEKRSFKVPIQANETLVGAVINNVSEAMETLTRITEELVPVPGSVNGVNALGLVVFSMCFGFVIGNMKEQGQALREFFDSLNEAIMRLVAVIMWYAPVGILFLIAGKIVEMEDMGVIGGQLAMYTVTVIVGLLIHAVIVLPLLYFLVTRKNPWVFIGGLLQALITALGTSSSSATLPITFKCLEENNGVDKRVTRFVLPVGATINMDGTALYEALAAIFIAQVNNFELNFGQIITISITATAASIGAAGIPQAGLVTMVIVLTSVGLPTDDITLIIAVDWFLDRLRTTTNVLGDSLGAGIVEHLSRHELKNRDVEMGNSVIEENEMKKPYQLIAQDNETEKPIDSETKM

Compound: O=C(O[C@@H]1CN[C@H](C(=O)O)C1)c1ccc(-c2ccc(C(F)(F)F)cc2)cc1 [SN 09]
- Ki (EAAT2): 0.97 ± 0.1 µM
- Ki (EAAT1): 1 ± 0.3 µM
- Ki (rASCT2): 0.27 ± 0.05 µM
- Ki (hASCT1): 0.44 ± 0.1 µM

Compound: O=C(O)[C@@H]1C[C@H](OCc2ccc(-c3ccccc3)cc2)CN1 [SN 39]
- Ki (EAAT2): 2.09 ± 0.5 µM
- Ki (EAAT1): 0.93 ± 0.1 µM
- Ki (rASCT2): 1.13 ± 0.1 µM
- Ki (hASCT1): 2.82 ± 0.1 µM

Compound: Cc1ccccc1-c1ccc(C(=O)O[C@@H]2CN[C@H](C(=O)O)C2)cc1C [SN 11]
- Ki (EAAT2): 3.14 ± 0.5 µM
- Ki (EAAT1): 4.75 ± 0.3 µM
- Ki (rASCT2): 0.87 ± 0.1 µM
- Ki (hASCT1): 8.2 ± 0.8 µM

Compound: N[C@@H](COC(=O)c1ccc(NC(=O)c2ccccc2)cc1)C(=O)O [SN 25]
- Ki (EAAT2): 11 ± 1.3 µM
- Ki (EAAT1): 9.57 ± 1.6 µM
- Ki (rASCT2): 4.4 ± 1.5 µM
- Ki (hASCT1): 11.6 ± 1.8 µM

Compound: Cc1ccccc1-c1ccc(C(=O)O[C@@H]2CN[C@H](C(=O)O)C2)cc1 [SN 10]
- Ki (EAAT2): 1.3 ± 0.1 µM
- Ki (EAAT1): 1 ± 0.1 µM
- Ki (rASCT2): 0.97 ± 0.1 µM
- Ki (hASCT1): 1.33 ± 0.3 µM

Compound: O=C(O[C@@H]1CN[C@H](C(=O)O)C1)c1ccc(-c2ccccc2)nc1 [SN 19]
- Ki (EAAT2): 7.95 ± 1.1 µM
- Ki (EAAT1): 10.2 ± 2.5 µM
- Ki (rASCT2): 0.89 ± 0.2 µM
- Ki (hASCT1): 4.37 ± 0.8 µM

Compound: O=C(O[C@@H]1CN[C@H](C(=O)O)C1)c1ccc(-c2ccccc2)cc1 [SN 05]
- Ki (EAAT2): 7.25 ± 1.5 µM
- Ki (EAAT1): 3.7 ± 0.2 µM
- Ki (rASCT2): 0.73 ± 0.1 µM
- Ki (hASCT1): 2.77 ± 0.1 µM

Compound: O=C(O[C@@H]1CN[C@H](C(=O)O)C1)c1ccc(-c2ccc(F)cc2)cc1 [SN 08]
- Ki (EAAT2): 1.29 ± 0.3 µM
- Ki (EAAT1): 0.4 ± 0.1 µM
- Ki (rASCT2): 0.65 ± 0.04 µM
- Ki (hASCT1): 0.9 ± 0.1 µM
